Patent publication US5202339A, “Hydantoin derivatives” (Mochida Pharmaceutical Co., Ltd., priority 1987, dated 1993)

Tests used:
[1] = molecular target: T1, rat lens aldose reductase (Rattus norvegicus, UniProt P07943); experiment: inhibitory activity on rat lens aldose reductase (Experimental Example 1); type: biochemical; settings: pH 6.2, 10 mM DL-glyceraldehyde, 0.16 mM NADPH
T1 construct: rat lens aldose reductase; from tissue; host or cells: rat lens
Method: The inhibitory activities of hydantoin derivatives on rat lens aldose reductase were measured according to the procedure of Inagaki et al. (K. Inagaki et al., Arch. Biochem. Biophys., 216, 337 (1982)) with slight modifications. Assays were performed in 0.1M phosphate buffer (pH 6.2) containing 0.4M ammonium sulfate, 10 mM DL-glyceraldehyde, 0.16 mM nicotinamide adenine dinucleotide phosphate, reduced form (NADPH) and aldose reductase (0.010-0.016 units) in a total volume of 1.0 ml. To this mixture was added 10 μl of the solution of each hydantoin derivative to be tested, and the decrease in absorbance at 340 nm was measured with a spectrophotometer.
The concentrations of typical hydantoin derivatives of the present invention required to produce 50% inhibition are shown in table 1.

[2] = molecular target: T2, bovine lens aldose reductase (Bos taurus, UniProt P16116); experiment: inhibitory activity on bovine lens aldose reductase (Experimental Example 2); type: biochemical; settings: for IC50: pH 6.2, 10 mM DL-glyceraldehyde, 0.16 mM NADPH; for potency compared with compound 13 and 15: in words
T2 construct: bovine lens aldose reductase preparation was used; from tissue; host or cells: bovine lens
Method: Assays were performed in 0.1M phosphate buffer (pH 6.2) containing 0.4M ammonium sulfate, 10 mM DL-glyceraldehyde, 0.16 mM nicotinamide adenine dinucleotide phosphate, reduced form (NADPH) and aldose reductase (0.010-0.016 units) in a total volume of 1.0 ml. To this mixture was added 10 μl of the solution of each hydantoin derivative to be tested, and the decrease in absorbance at 340 nm was measured with a spectrophotometer.

[3] = system: Streptozotocin-Diabetic Rats; experiment: Hypoglycemic Effects in Streptozotocin-Diabetic Rats (Experimental Example 4); type: in vivo, rat (male Wistar); settings: Rattus norvegicus; STZ-diabetic rats, 100 mg/kg oral, 6 hrs after administration; read-out: Lowering rate of serum glucose (%)
Method: Diabetic rats were produced according to the method of Junod et al. (A. Junod et al., J. Clin. Invest., 48, 2129 (1969)). Briefly, male Wistar rats were given 26.5 mg/kg of streptozotocin (STZ) intravenously. Four days later, the rats with serum glucose levels of between 400 and 500 mg/dl were used. After being fasted for 4 hrs, groups of 5 diabetic rats were orally administered with the compounds of the present invention or gliclazide in a dose of 100 mg/kg. Blood sample were collected from the orbital vein before and 6 hrs after the administration. Serum glucose levels were determined by the enzymatic method with an autoanalyzer (Cobas Fara®, Roche).

Row | SMILES | IC50 [2] | inhibition in vivo at 100 mg/kg [3] | other results
1 | O=C1CN(S(=O)(=O)c2cc3ccccc3cc2Cl)C(=O)N1 [Compound 2, 1-(3-chloronaphthalen-2-ylsulfonyl)hydantoin] | – | – | IC50 [1]: 160 nM
2 | O=C1CN(S(=O)(=O)c2ccc3cc(Cl)ccc3c2)C(=O)N1 [Compound 4, 1-(6-chloronaphthalen-2-ylsulfonyl)hydantoin] | – | – | IC50 [1]: 140 nM
3 | O=C1CN(S(=O)(=O)c2ccc3ccc(Cl)cc3c2)C(=O)N1 [Compound 5, 1-(7-chloronaphthalen-2-ylsulfonyl)hydantoin] | – | – | IC50 [1]: 390 nM
4 | O=C1CN(S(=O)(=O)c2ccc3cccc(Cl)c3c2)C(=O)N1 [Compound 6, 1-(8-chloronaphthalen-2-ylsulfonyl)hydantoin] | – | – | IC50 [1]: 460 nM
5 | O=C1CN(S(=O)(=O)c2ccc3ccccc3c2Br)C(=O)N1 [Compound 8, 1-(1-bromonaphthalen-2-ylsulfonyl)hydantoin] | – | – | IC50 [1]: 94 nM
6 | O=C1CN(S(=O)(=O)c2ccc3cc(Br)ccc3c2)C(=O)N1 [Compound 10, 1-(6-bromonaphthalen-2-ylsulfonyl)hydantoin] | – | – | IC50 [1]: 170 nM
7 | O=C1CN(S(=O)(=O)c2ccc3c([N+](=O)[O-])cccc3c2)C(=O)N1 [Compound 11, 1-(5-nitronaphthalen-2-ylsulfonyl)hydantoin] | – | – | IC50 [1]: 100 nM
8 | O=C1CN(S(=O)(=O)c2cc3cc(Cl)ccc3s2)C(=O)N1 [Compound 18, 1-(5-chlorobenzo[b]thiophen-2-yl-sulfonyl)hydantoin] | 240 nM | – | potency compared with compound 13 and 15 [2]: as potent as compound 13 and 15
9 | O=C1CN(S(=O)(=O)c2nc3ccccc3s2)C(=O)N1 [Compound 22, 1-(benzothiazol-2-ylsulfonyl)hydantoin] | 340 nM | 15% | –
10 | O=C1CN(S(=O)(=O)c2cc3ccc(Cl)cc3s2)C(=O)N1 [Compound 26, 1-(6-chlorobenzo[b]thiophen-2-yl-sulfonyl)hydantoin] | 270 nM | 33.1% | –
11 | CC(C)c1c(S(=O)(=O)N2CC(=O)NC2=O)sc2ccccc12 [Compound 28, 1-(3-isopropylbenzo[b]thiophen-2-yl-sulfonyl)hydantoin] | 140 nM | – | –
12 | O=C1CN(S(=O)(=O)c2sc3ccccc3c2C(F)(F)F)C(=O)N1 [Compound 29, 1-(3-trifluoromethylbenzo[b]thiophen-2-ylsulfonyl)hydantoin] | 130 nM | – | –
13 | N#Cc1c(S(=O)(=O)N2CC(=O)NC2=O)sc2ccccc12 [Compound 33, 1-(3-cyanobenzo[b]thiophen-2-yl-sulfonyl)hydantoin] | 190 nM | – | –
14 | O=C1CN(S(=O)(=O)c2sc3c(F)cccc3c2Br)C(=O)N1 [Compound 34, 1-(3-bromo-7-fluorobenzo[b]thiophen-2-ylsulfonyl)hydantoin] | 85 nM | 13.2% | –
15 | O=C1CN(S(=O)(=O)c2cc3c(Cl)cc(Cl)cc3o2)C(=O)N1 [Compound 37, 1-(4,6-dichlorobenzo[b]furan-2-yl-sulfonyl)hydantoin] | 170 nM | 14.5% | –
16 | O=C1CN(S(=O)(=O)c2cc3cc([N+](=O)[O-])ccc3s2)C(=O)N1 [Compound 42, 1-(5-nitrobenzo[b]thiophen-2-yl-sulfonyl)hydantoin] | 270 nM | – | –
17 | O=C1CN(S(=O)(=O)c2cc3cc(C(=O)O)ccc3s2)C(=O)N1 [Compound 43, 1-(5-carboxybenzo[b]thiophen-2-yl-sulfonyl)hydantoin] | 400 nM | – | –
18 | O=C1CN(S(=O)(=O)c2cc3cccc(F)c3o2)C(=O)N1 [Compound 48, 1-(7-fluorobenzo[b]furan-2-ylsulfonyl)hydantoin] | – | 45.9% | –
19 | O=C1CN(S(=O)(=O)c2oc3c(F)cccc3c2Br)C(=O)N1 [Compound 49, 1-(3-bromo-7-fluorobenzo[b]furan-2-yl-sulfonyl)hydantoin] | – | 49.2% | –
20 | O=C1CN(S(=O)(=O)c2ccc3ccccc3c2F)C(=O)N1 [Compound 50, 1-(1-fluoronaphthalen-2-ylsulfonyl)hydantoin] | – | 48.8% | –
21 | O=C1CN(S(=O)(=O)c2cc3c(Br)cccc3o2)C(=O)N1 [Compound 51, 1-(4-bromobenzo[b]furan-2-ylsulfonyl)hydantoin] | – | 11% | –
22 | O=C1CN(S(=O)(=O)c2cc3ccc(Br)cc3o2)C(=O)N1 [Compound 52, 1-(6-bromobenzo[b]furan-2-ylsulfonyl)hydantoin] | – | 29% | –
23 | O=C1CN(S(=O)(=O)c2oc3ccccc3c2I)C(=O)N1 [Compound 53, 1-(3-iodobenzo[b]furan-2-ylsulfonyl)hydantoin] | – | 19% | –
24 | O=C1CN(S(=O)(=O)c2oc3cc(Br)ccc3c2Br)C(=O)N1 [Compound 54, 1-(3,6-dibromobenzo[b]furan-2-yl-sulfonyl)hydantoin] | – | 29% | –

More lines, main results first:

Row | IC50 [2] | SMILES | inhibition in vivo at 100 mg/kg [3] | other results
25 | 390 nM | O=C1CN(S(=O)(=O)c2cc3ccccc3s2)C(=O)N1 [Compound 16, 1-(benzo[b]thiophen-2-ylsulfonyl)hydantoin] | 33.5% | –
26 | 120 nM | O=C1CN(S(=O)(=O)c2sc3ccccc3c2Cl)C(=O)N1 [Compound 17, 1-(3-chlorobenzo[b]thiophen-2-yl-sulfonyl)hydantoin] | – | potency compared with compound 13 and 15 [2]: as potent as compound 13 and 15
27 | 220 nM | O=C1CN(S(=O)(=O)c2ccc3oc(=O)ccc3c2)C(=O)N1 [Compound 23, 1-(coumarin-6-ylsulfonyl)hydantoin] | – | potency compared with compound 13 and 15 [2]: as potent as compound 13 and 15
28 | 260 nM | O=C1CN(S(=O)(=O)c2cc(Br)c(Br)s2)C(=O)N1 [Compound 25, 1-(4,5-dibromothiophen-2-ylsulfonyl)hydantoin] | – | –
29 | 190 nM | O=C1CN(S(=O)(=O)c2cc3cccc(Cl)c3s2)C(=O)N1 [Compound 27, 1-(7-chlorobenzo[b]thiophen-2-yl-sulfonyl)hydantoin] | – | –
30 | 120 nM | O=C1CN(S(=O)(=O)c2sc3ccccc3c2Br)C(=O)N1 [Compound 30, 1-(3-bromobenzo[b]thiophen-2-yl-sulfonyl)hydantoin] | – | –
31 | 270 nM | COc1c(S(=O)(=O)N2CC(=O)NC2=O)sc2ccccc12 [Compound 31, 1-(3-methoxybenzo[b]thiophen-2-yl-sulfonyl)hydantoin] | – | –
32 | 380 nM | CS(=O)(=O)c1c(S(=O)(=O)N2CC(=O)NC2=O)sc2ccccc12 [Compound 32, 1-(3-methylsulfonylbenzo[b]thiophen-2-ylsulfonyl)hydantoin] | – | –
33 | 300 nM | O=C1CN(S(=O)(=O)c2c(Cl)sc3ccccc23)C(=O)N1 [Compound 35, 1-(2-chlorobenzo[b]thiophen-3-yl-sulfonyl)hydantoin] | 14% | –
34 | 240 nM | O=C1CN(S(=O)(=O)c2cc3c(I)cccc3o2)C(=O)N1 [Compound 36, 1-(4-iodobenzo[b]furan-2-ylsulfonyl)hydantoin] | – | –
35 | 320 nM | O=C1CN(S(=O)(=O)c2cc3cc(F)ccc3s2)C(=O)N1 [Compound 39, 1-(5-fluorobenzo[b]thiophen-2-yl-sulfonyl)hydantoin] | 16% | –
36 | 470 nM | O=C1CN(S(=O)(=O)c2nsc3ccccc23)C(=O)N1 [Compound 41, 1-(benzo[b]isothiazol-3-ylsulfonyl)hydantoin] | 23.6% | –
37 | 54 nM | O=C1CN(S(=O)(=O)c2oc3cc(Cl)cc(Cl)c3c2Br)C(=O)N1 [Compound 46, 1-(3-bromo-4,6-dichlorobenzo[b]furan-2-ylsulfonyl)hydantoin] | – | –
